# Like-named read-outs stand apart in the source and are kept apart here.
# Tests used:
# [1] = test system: NCC (lysis of IM-9 target cells); conditions: for effect of removal of inhibitor on NCC activation (words): 90 minutes treatment, washed, E:T 40:1; for enhancement of destruction of IM-9 target cells (fold): over control, lower E:T ratios
# Method: FIG. 4. Individual and combined effects of phosphatase inhibitors on NCC cytotoxicity, NCC (7×10^5 cells) were incubated with either media (.diamond.), vanadate (Δ) (5 mM). NaF (.smallcircle.) (20 mM), or both vanadate and NaF (.quadrature.) for the indicated time periods before addition to labeled IM-9 target cells.
# FIG. 5. Effects of removal of Na3 VO4 on NCC activation. NCC were harvested, incubated for three hours, washed, counted and added to duplicate tubes containing either media alone or media containing 2.5, 5 and 10 mM vanadate. Following a 90 minutes incubation time, the cells were either washed and resuspended in media (closed circles) or added directly (open circles) to wells containing ^51 chromium labeled IM-9 target cells (E:T ratio 40:1).
# FIG. 6. Effects of removal of NaF on NCC activation. NCC were harvested, incubated for three hours in media, washed, counted and added to duplicate tubes containing media alone or in the presence of 5, 10 and 20 mM NaF. Following a 90 minutes treatment time, NCC were either washed (closed circles) or added directly (open circles) to wells containing labeled IM-9 target cells (E:t ratio 40:1).
# FIG. 7. Effects of Na3 VO4 on NCC with different levels of cytotoxicity. NCC were harvested from anterior kidneys of fish from three different sources. The cells were incubated in media for three hours, washed, counted and added to test tubes containing either media alone or media with 2.5, 5 and 10 mM vanadate. Following a two hours incubation time, the effectors were added to wells containing labeled IM-9 cells at a 40:1 E:T ratio.
# FIG. 8. Effects of NaF on NCC with different levels of cytotoxicity. NCC were harvested from anterior kidneys of fish from three different sources. The cells were incubated in media for three hours, washed, counted and added to media or media with 5, 10 and 20 mM NaF. Following a two-hour incubation, NCC were added to wells containing ^51 chromium labeled IM-9 target cells for a final E:T ratio of 40:1.
# (§1) A ^51 Cr release assay was used to determine cytotoxicity. Target cells at 1-2×10^6 cells/ml were labeled with 100 μCi of sodium chromate (Amersham, Arlington Heights, Ill.). NCC effector cells were treated as previously described [Evans et al. (1988) supra], centrifuged (500 g), and resuspended in media and added at different E:T ratios to the labeled target cells in round-bottomed 96-well microtiter plates. This mixture was incubated (25° C.) for 4-6 hours and 100 μl of each supernatant was removed to determine radioactivity (Beckman Biogamma II Counter; Beckman Instruments, Irvine, Calif.). The results are expressed as either percentage specific release (SR)=[(test release--spontaneous release)/(total release--spontaneous release)]×100; percent inhibition=[(percentage control SR--percentage test SR)/percentage control SR]×100; and percentage increase=(percentage test SR--percentage control SR)/percentage control SR.
# NCC were obtained as previously described [Graves et al. (1984) supra]; Evans et al. (1984) supra]. […] NCC were then washed and resuspended at 20×10^6 cells/ml, and 35 μl aliquots were added to test tubes containing 315 μl media only (media control) or media containing the indicated treatments. After 2 hr incubation, the cells were mixed with ^51 Cr-labeled IM-9 target cells and incubated for 4-6 hours ([…]). Supernatants were harvested and cytotoxicity levels were calculated as previously described.
# Membrane phosphorylation is maintained through a delicate equilibrium between cellular kinase and phosphatase activities.
# In further studies, NCC were treated with different concentrations of protein phosphatase inhibitors for two hours and labeled IM-9 target cells were added for a four-hour microcytotoxicity assay (Table 8).
# [2] = test system: NCC from stressed fish (lysis of IM-9 target cells); conditions: 100:1, control 0.9
# Method: as §1
# A common observation in fish exposed to stress, e.g., toxicants, drastic temperature changes, handling, etc., is the temporary loss of NCC activity.
# [3] = test system: NCC (lysis of IM-9 target cells); conditions: 0.05 mM (50 μM), immersion, 10, 24, 48 hours
# Method: FIG. 9. In vivo NCC responses to vanadate treatment. Catfish were acclimated in 10 gal tanks for 24 hours prior to treatment. Vanadate was added directly to the tanks and cytotoxicity assays of NCC from treated and control fish were conducted at 10, 24 and 48 hours post-treatment.
# Fish were treated by immersion in 10 gal (static flow) tanks containing the appropriate inhibitor concentrations in 15 liters of dechlorinated water (19°-20° C.). All fish were acclimated to tank conditions 24 hours prior to treatment. Each tank housed twenty fish (approximately 4-5 inches in length). At 24 hour intervals 50% of the water was changed.
# To determine the ability of vanadate to act in vivo to activate NCC responses, fish were treated by immersion with 0.050 mM vanadate and cytotoxicity was determined at 10, 24 and 48 hours post-treatment.
# Edwardsiella ictaluri [4] = test system: Edwardsiella ictaluri
# Method: FIG. 11. Effects of treatment of catfish with vanadate prior to infection with E. ictaluri. In two different experiments (A and B), catfish were treated with vanadate (indicated concentrations) 48 hours prior to infection with Edwardsiella. Percent cumulative mortality for each treatment group is given. Numbers of fish were 12-15/group/experiment.
# Thus, catfish were treated (by immersion) with 0.05 mM vanadate for 48 hours prior to infection with Edwardsiella ictaluri.
# [5] = test system: NCC in anterior kidney tissue; conditions: for % NCC in anterior kidney tissue / Total cells/ml: 50 μM
# Edwardsiella ictaluri [6] = conditions: approximately 10 μM to approximately 25 μM, 18-24 hours; FIG. 10; listed as sodium orthovanadate
# Na^+ /K^+ ATPase = conditions: cited from earlier work
# protein phosphatase = conditions: cited from earlier work
# [7] = test system: human prostate gland phosphotyrosyl protein phosphatase; conditions: cited from earlier work
# calcineurin = conditions: cited from earlier work
# diabetic animals = conditions: cited from earlier work
# [8] = test system: cellular carbohydrate biosynthetic pathways; conditions: cited from earlier work
# [9] = test system: muscles and liver; cardiac performance; conditions: rats; cited from earlier work
substance,measurement,setting,value
sodium orthovanadate,Percent Specific Release,"[1]; 5 mM, E:T 10, media 39",63%
same,Percent Specific Release,"[1]; 5 mM, E:T 25, media 4",29%
same,Percent Specific Release,"[1]; 5 mM, E:T 50, media 21",46%
same,Percent Specific Release,"[1]; 10 mM, E:T 10, media 39",62%
same,Percent Specific Release,"[1]; 10 mM, E:T 25, media 4",40%
same,Percent Specific Release,"[1]; 10 mM, E:T 50, media 21",49%
same,effect of removal of inhibitor on NCC activation (words),[1],slightly reduced levels of NCC cytotoxicity
same,effect of removal of inhibitor on NCC activation (words),[1]; listed as sodium vanadate,largely retained
same,enhancement of destruction of IM-9 target cells (fold),[1]; listed as Sodium vanadate,approximately six- to eightfold
same,enhancement of destruction of IM-9 target cells (fold),[1]; listed as sodium vanadate,as much as six- to eightfold
same,Percent Specific Release (stressed fish),[2]; Na3 VO4 5.0 mM,9.9%
same,Percent Specific Release (stressed fish),[2]; Na3 VO4 10.0 mM,13.1%
same,in vivo NCC cytotoxicity (words),[3]; listed as orthovanadate,significantly increased cytotoxicity 48 hours post-treatment
same,in vivo NCC cytotoxicity (words),[3]; listed as vanadate,large increases in cytotoxicity by 48 hours
same,reduction in mortality,"Edwardsiella ictaluri [4]; 0.05 mM pretreatment 48 hours, FIG. 11A",27%
same,reduced mortality,"Edwardsiella ictaluri [4]; 0.05 mM pretreatment, 13-14 days post infection, FIG. 11B",54%
same,mortality / resistance after pretreatment (words),"Edwardsiella ictaluri [4]; 0.05 mM, 48 hours prior to infection, listed as sodium orthovanadate",produced resistance in catfish against the Edwardsiella pathogen
same,survival at 28 days post-infection,Edwardsiella ictaluri [4]; experiment B,all treated catfish were still alive
same,% NCC in anterior kidney tissue,"[5]; 3 hours post-treatment, control 60",51%
same,Total cells/ml,"[5]; 3 hours, control 3.2",3.1 cells/ml × 10^0
same,Total cells/ml,"[5]; 24 hours, control 2.6",2.8 cells/ml × 10^0
same,% NCC in anterior kidney tissue,"[5]; 24 hours, control 55",60%
same,Total cells/ml,"[5]; 48 hours, control 2.1",3.5 cells/ml × 10^0
same,% NCC in anterior kidney tissue,"[5]; 48 hours, control 52",66%
same,Total cells/ml,"[5]; 72 hours, control 2.3",3.1 cells/ml × 10^0
same,% NCC in anterior kidney tissue,"[5]; 72 hours, control 70",72%
same,Total cells/ml,"[5]; 96 hours, control 3.6",1.6 cells/ml × 10^0
same,% NCC in anterior kidney tissue,"[5]; 96 hours, control 61",78%
same,effect on total number of cells and percentage NCC in anterior kidney tissue,[5]; in vivo,not due to fluctuations in the total number of cells nor in the percentage of NCC
same,mortality of infected catfish (words),Edwardsiella ictaluri [6],mortality was reduced
same,Na^+ /K^+ ATPase inhibition,Na^+ /K^+ ATPase,significantly inhibited
same,protein phosphatase activity,protein phosphatase,vanadate but not fluoride inhibited protein phosphatase activity
same,human prostate gland phosphotyrosyl protein phosphatase,[7],"fluoride, but not vanadate inhibited human prostate gland phosphotyrosyl protein phosphatase"
same,calcineurin-mediated dephosphorylation,calcineurin,"fluoride, but not vanadate inhibited"
same,blood glucose levels in diabetic animals,"diabetic animals; oral, 15 μM in drinking water",normalization of blood glucose levels in diabetic animals
same,time to reversal of effects after suspension of treatment,diabetic animals; rats,two
same,glucose oxidation,[8],stimulation of glucose oxidation
same,glycogen synthetase activity,[8],stimulation of glycogen synthetase activity
same,insulin activity,[8],prolongation of insulin activity
same,insulin binding,[8],augmentation of insulin binding
same,cardiac performance,[9],improved cardiac performance
same,glucose transport into muscles and liver,[9],stimulated glucose transport into muscles and liver
